Patent US10570155B2, “Imidazooxazole derivative having antitumor effect, and pharmaceutical composition including same” (KOREA INSTITUTE OF SCIENCE AND TECHNOLOGY, priority 2016, dated 2020)

Assays:
SK-MEL-5 = experiment: NCI cancer cell line panel screening (SRB), melanoma cell line SK-MEL-5; type: cell-based, human; settings: Homo sapiens, read-out: IC50 against melanoma cell line in vitro
Method: (§1) According to the standard protocol (http://dtp.nci.nih.gov/dtpstandard/dwindex/index.isp) of the US National Cancer Institute (NCI) (www.dtp.nci.nih.gov), screening of a cancer cell line panel was performed. […] For a general screening experiment, cells were inoculated in 96-well microtiter plates in 100 μl at a plating density ranging from 5000 cells/well to 40,000 cells/well depending on the doubling time of individual cell lines. After cell inoculation, the microtiter plates were incubated at 37° C., 5% CO2, 95% air, and 100% relative humidity for 24 hours prior to addition of test compounds. 24 hours later, two plates of each cell line were fixed in situ with trichloroacetic acid (TCA) to measure the cell population for each cell line at the time of test compound addition (Tz). Test compounds were solubilized in dimethyl sulfoxide at 400-fold the intended final maximum test concentration, and stored frozen prior to use. At the time of compound addition, an aliquot of frozen concentrate was thawed and diluted to twice the intended final maximum test concentration with a complete medium containing 50 μg/ml of gentamicin. Additional four concentration of 10-fold or ½ log serial dilutions were made to provide a total of five compound concentrations plus control. Aliquots of 100 μl of these different compound dilutions were added to appropriate microtiter wells already containing 100 μl of medium, resulting in the required final compound concentrations.
(§2) Following compound addition, the plates were incubated for additional 48 hours at 37° C., 5% CO2, 95% air, and 100% relative humidity. For adherent cells, the assay was terminated by the addition of cold TCA. Cells were fixed in situ by the gentle addition of 50 μl of cold 50% (w/v) TCA (final concentration, 10% TAC) and incubated at 4° C. for 60 minutes. The supernatant was discarded, and the plates were washed five times with tap water and air-dried. A sulforhodamine B (SRB) solution (100 μl) at 0.4% (w/v) in 1% acetic acid was added to each well, and plates were incubated at room temperature for 10 minutes. After staining, unbound dye was removed by washing five times with 1% acetic acid and the plates were air-dried. […] For suspension cells, the methodology was the same except that the assay was terminated by fixing settled cells at the bottom of the wells by gently adding 50 μl of 80% TCA (final concentration, 16% TCA). Using the seven absorbance measurements [time zero (Tz), control growth (C), and test growth rate in the presence of compound at the five concentration levels (Ti)], the growth percentage was calculated at each of the compound concentration levels. Growth inhibition percentage was calculated as follows: [(Ti−Tz)/(C−Tz)]×100 for concentrations for which Ti>/=Tz [(Ti−Tz)/Tz]×100 for concentrations for which Ti<Tz.

UACC-62 = experiment: NCI cancer cell line panel screening (SRB), melanoma cell line UACC-62; type: cell-based; settings: Homo sapiens, read-out: IC50 against melanoma cell line in vitro
Method: (§3) According to the standard protocol (http://dtp.nci.nih.gov/dtpstandard/dwindex/index.isp) of the US National Cancer Institute (NCI) (www.dtp.nci.nih.gov), screening of a cancer cell line panel was performed. Briefly, human cell lines were allowed to grow in an RPMI 1640 medium containing 5% FBS and 2 mM L-glutamine. For a general screening experiment, cells were inoculated in 96-well microtiter plates in 100 μl at a plating density ranging from 5000 cells/well to 40,000 cells/well depending on the doubling time of individual cell lines. After cell inoculation, the microtiter plates were incubated at 37° C., 5% CO2, 95% air, and 100% relative humidity for 24 hours prior to addition of test compounds. 24 hours later, two plates of each cell line were fixed in situ with trichloroacetic acid (TCA) to measure the cell population for each cell line at the time of test compound addition (Tz). Test compounds were solubilized in dimethyl sulfoxide at 400-fold the intended final maximum test concentration, and stored frozen prior to use. At the time of compound addition, an aliquot of frozen concentrate was thawed and diluted to twice the intended final maximum test concentration with a complete medium containing 50 μg/ml of gentamicin. Additional four concentration of 10-fold or ½ log serial dilutions were made to provide a total of five compound concentrations plus control. Aliquots of 100 μl of these different compound dilutions were added to appropriate microtiter wells already containing 100 μl of medium, resulting in the required final compound concentrations.
(§4) Following compound addition, the plates were incubated for additional 48 hours at 37° C., 5% CO2, 95% air, and 100% relative humidity. For adherent cells, the assay was terminated by the addition of cold TCA. Cells were fixed in situ by the gentle addition of 50 μl of cold 50% (w/v) TCA (final concentration, 10% TAC) and incubated at 4° C. for 60 minutes. The supernatant was discarded, and the plates were washed five times with tap water and air-dried. A sulforhodamine B (SRB) solution (100 μl) at 0.4% (w/v) in 1% acetic acid was added to each well, and plates were incubated at room temperature for 10 minutes. After staining, unbound dye was removed by washing five times with 1% acetic acid and the plates were air-dried. Bound stain was subsequently solubilized with 10 mM Trizma base, and the absorbance was read on an automated plate reader at a wavelength of 515 nm. For suspension cells, the methodology was the same except that the assay was terminated by fixing settled cells at the bottom of the wells by gently adding 50 μl of 80% TCA (final concentration, 16% TCA). Using the seven absorbance measurements [time zero (Tz), control growth (C), and test growth rate in the presence of compound at the five concentration levels (Ti)], the growth percentage was calculated at each of the compound concentration levels. Growth inhibition percentage was calculated as follows: [(Ti−Tz)/(C−Tz)]×100 for concentrations for which Ti>/=Tz [(Ti−Tz)/Tz]×100 for concentrations for which Ti<Tz.

SK-MEL-2 = experiment: NCI cancer cell line panel screening (SRB), melanoma cell line SK-MEL-2; type: cell-based, human; settings: Homo sapiens, read-out: IC50 against melanoma cell line in vitro
Method: as §1, §2

B-RAF = B-RAF (Homo sapiens (Human), UniProt P15056); experiment: Protein kinase enzymatic activity (Reaction Biology kinase hotspot, 33P-ATP); type: biochemical; settings: read-out: Inhibitory effect against kinase activity, B-RAF (IC50)
Chain of B-RAF (P15056 whole entry): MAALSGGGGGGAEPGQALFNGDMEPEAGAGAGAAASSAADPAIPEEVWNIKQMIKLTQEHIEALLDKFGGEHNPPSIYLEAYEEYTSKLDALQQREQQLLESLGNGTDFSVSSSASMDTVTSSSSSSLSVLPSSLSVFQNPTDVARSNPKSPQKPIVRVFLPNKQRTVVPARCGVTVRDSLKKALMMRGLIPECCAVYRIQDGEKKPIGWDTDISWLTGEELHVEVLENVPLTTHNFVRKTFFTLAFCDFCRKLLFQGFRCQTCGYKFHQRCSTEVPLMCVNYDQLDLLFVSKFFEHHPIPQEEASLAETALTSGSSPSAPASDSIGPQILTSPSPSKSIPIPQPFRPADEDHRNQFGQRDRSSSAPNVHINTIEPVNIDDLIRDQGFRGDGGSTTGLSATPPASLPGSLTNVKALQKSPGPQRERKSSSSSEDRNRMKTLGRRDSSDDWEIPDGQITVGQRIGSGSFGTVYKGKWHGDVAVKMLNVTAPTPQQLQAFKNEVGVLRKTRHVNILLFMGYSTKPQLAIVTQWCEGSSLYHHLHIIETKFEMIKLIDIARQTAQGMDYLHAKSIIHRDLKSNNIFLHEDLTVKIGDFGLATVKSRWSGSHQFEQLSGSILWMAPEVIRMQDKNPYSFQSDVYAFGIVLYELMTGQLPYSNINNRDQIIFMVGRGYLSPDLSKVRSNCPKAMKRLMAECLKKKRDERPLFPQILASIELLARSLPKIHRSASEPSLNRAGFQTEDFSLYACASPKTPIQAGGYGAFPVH
Method: (§5) Reaction biology kinase hotspot service (http://www.reactionbiology.com) was used to measure IC50. In a final reaction volume of 25 μL, kinase (5 mU to 10 mU) was incubated with 25 mM Tris (pH 7.5), 0.02 mM EGTA, 0.66 mg/ml of myelin basic protein, 10 mM magnesium acetate, and [^33P-ATP] (specific activity of about 500 CPM/pmol, concentration as required). The reaction was initiated by addition of Mg-ATP mix. After incubation for 40 min at room temperature, the reaction was stopped by addition of 5 μl of a 3% phosphoric acid solution. 10 μL of the reaction was then spotted onto a P30 filtermat and washed three times for 5 minutes in 75 mM phosphoric acid and once in methanol prior to drying and scintillation counting.

C-RAF = C-RAF (Homo sapiens (Human), UniProt P04049, Y340D/Y341D); experiment: as above; type: biochemical; settings: read-out: Inhibitory effect against kinase activity, C-RAF (IC50)
Chain of C-RAF (P04049 306-648 Y340D/Y341D limits assumed): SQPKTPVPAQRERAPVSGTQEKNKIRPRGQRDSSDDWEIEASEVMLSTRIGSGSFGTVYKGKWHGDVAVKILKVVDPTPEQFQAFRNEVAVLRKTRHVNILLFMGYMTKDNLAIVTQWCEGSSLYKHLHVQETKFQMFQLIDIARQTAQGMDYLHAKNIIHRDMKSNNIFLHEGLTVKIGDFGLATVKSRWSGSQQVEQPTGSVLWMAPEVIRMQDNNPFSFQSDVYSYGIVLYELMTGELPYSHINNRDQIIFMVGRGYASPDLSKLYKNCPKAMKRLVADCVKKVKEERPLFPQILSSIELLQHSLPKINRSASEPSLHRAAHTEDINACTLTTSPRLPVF
Method: as §5

V600E-B-RAF = V600E-B-RAF (Homo sapiens (Human), UniProt P15056, V600E); experiment: as above; type: biochemical; settings: read-out: Inhibitory effect against kinase activity, V600E-B-RAF (IC50)
Chain of V600E-B-RAF (P15056 whole entry V600E): as the sequence (P15056 whole entry) above, with V600E counted along it
Method: as §5

SK-MEL-28 = experiment: NCI cancer cell line panel screening (SRB), melanoma cell line SK-MEL-28; type: cell-based, human; settings: Homo sapiens, read-out: IC50 against melanoma cell line in vitro
Method: as §1, §2

LOX IMVI = experiment: NCI cancer cell line panel screening (SRB), melanoma cell line LOX IMVI; type: cell-based, human; settings: Homo sapiens, read-out: IC50 against melanoma cell line in vitro
Method: as §1, §2

A375 = experiment: NCI cancer cell line panel screening (SRB), melanoma cell line A375; type: cell-based; settings: Homo sapiens, A-375, read-out: IC50 against melanoma cell line in vitro
Method: as §3, §4

MDA-MB-435 = experiment: NCI cancer cell line panel screening (SRB), melanoma cell line MDA-MB-435; type: cell-based; settings: Homo sapiens, read-out: IC50 against melanoma cell line in vitro
Method: as §3, §4

M14 = experiment: NCI cancer cell line panel screening (SRB), melanoma cell line M14; type: cell-based; settings: Homo sapiens, read-out: IC50 against melanoma cell line in vitro
Method: as §3, §4

IC50 (B-RAF) [nM] | IC50 (C-RAF) [nM] | IC50 (V600E-B-RAF) [nM] | Structure (SMILES) | IC50 (SK-MEL-5) [nM] | IC50 (UACC-62) [nM] | IC50 (SK-MEL-2) [nM] | IC50 (SK-MEL-28) [nM] | IC50 (LOX IMVI) [nM] | IC50 (A375) [nM] | IC50 (MDA-MB-435) [nM] | IC50 (M14) [nM]
4.19 | 7.83 | 0.98 | O=S(=O)(NCCCNc1nccc(-c2c(-c3cccc(O)c3)nc3sccn23)n1)c1ccc(F)cc1 [31III, 4-fluoro-N-(3-((4-(6-(3-hydroxylphenyl)imidazo[2,1-b]thiazol-5-yl)pyrimidin-2-yl)amino)propyl)benzenesulfonamide] | 1200 | 20 | 1100 | 50 | 560 | 300 | 240 | 60
3.23 | 2.95 | 1.85 | CN1CCN(CCNc2nccc(-c3c(-c4cccc(O)c4)nc4occn34)n2)S1(=O)=O [1II, 2-(2-((4-(6-(3-Hydroxylphenyl)imidazo[2,1-b]oxazol-5-yl)pyrimidin-2-yl)amino)ethyl)-5-methyl-1,2,5-thiadiazolidine 1,1-dioxide] |  |  |  |  |  | 60 |  | 
